From US20230416271A1, “HETEROARYLQUINAZOLINE COMPOUNDS AS PROTEIN KINASE INHIBITORS” (CHENGDU CYNOGEN BIO-PHARMACEUTICAL TECHNOLOGY CO., LTD., priority 2020, published 2023) come the findings set out here.

Each structure is given as a SMILES string.

What all share (type): biochemical
One assay concerns the target CDK6/Cyclin D3 (Homo sapiens (Human), UniProt Q00534). Description: Kinase activity assay (Caliper Mobility Shift Assay), CDK6/Cyclin D3. The protocol: (§1) The inhibitory effect of compounds against the kinase CDK4/cyclin D3 was detected by Caliper Mobility Shift Assay method. The final concentration of the compounds to be tested was set at 10 concentrations starting from 1 uM by 3-fold serial dilution. 5 μL of compounds at 5-fold final concentration and 10 μL of CDK4/cyclin D3 kinase solution at a final concentration of 10 nM was added to a 384-well reaction plate, respectively. The plate was pre-incubated for 10 min at room temperature (with negative control wells containing 10 uL of kinase buffer and 5 uL of 5% DMSO; positive control wells containing 10 μL of kinase solution and 5 uL of 5% DMSO). The reaction was initiated by adding 10 μL of ATP at a final concentration of 250 uM and the corresponding substrate peptide mixture at room temperature for 150 minutes. 30 uL of stop detection solution containing EDTA was added to stop the kinase reaction. Caliper EZ Reader was used to read the conversion rate. Conversion inhibition rate %=(average conversion rate of positive control %−conversion rate of sample %)/(average conversion rate of positive control %−average conversion rate of negative control %). wherein: negative control wells represent the conversion rate readings of wells without enzymatic activity; positive control wells represent conversion readings for wells with no compound inhibition. The log(inhibitor) vs. response—Variable slope of the analysis software GraphPad Prism 5 was used with log concentration value as the X-axis and the percent inhibition rate as the Y-axis to fit the dose-response curve, the IC50 value of each compound on the enzyme activity was thus obtained. Calculation formula: Y=Bottom+(Top−Bottom)/(1+10^((Log IC50−X)*HillSlope)).
(§2) The IC50 values and inhibitory activities of compounds of the present disclosure on CDK6/Cyclin D3, CDK2/Cyclin A2, and CDK9/cyclin T1 were tested in a similar manner.

For the next assay, the target named is CDK4/cyclin D3 (Homo sapiens (Human), UniProt P11802). Description: Kinase activity assay (Caliper Mobility Shift Assay), CDK4/cyclin D3. The settings on record: 10 nM kinase, 250 uM ATP. As to the method:
as §1

The target in the next assay is CDK2/Cyclin A2 (Homo sapiens (Human), UniProt P24941). Nature of the assay: Kinase activity assay (Caliper Mobility Shift Assay), CDK2/Cyclin A2. The protocol:
as §1, §2

Chain of CDK4/cyclin D3 (P11802 whole entry, species assumed): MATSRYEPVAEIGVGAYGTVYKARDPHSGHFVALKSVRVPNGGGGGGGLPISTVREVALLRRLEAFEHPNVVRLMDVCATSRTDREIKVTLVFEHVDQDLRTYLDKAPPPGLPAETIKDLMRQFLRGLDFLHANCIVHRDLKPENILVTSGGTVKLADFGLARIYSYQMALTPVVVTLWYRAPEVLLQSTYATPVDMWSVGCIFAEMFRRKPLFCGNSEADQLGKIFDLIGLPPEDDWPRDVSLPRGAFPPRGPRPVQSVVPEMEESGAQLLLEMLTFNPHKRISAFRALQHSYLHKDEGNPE
Chain of CDK4/cyclin D3 (P30281 whole entry partner, species assumed): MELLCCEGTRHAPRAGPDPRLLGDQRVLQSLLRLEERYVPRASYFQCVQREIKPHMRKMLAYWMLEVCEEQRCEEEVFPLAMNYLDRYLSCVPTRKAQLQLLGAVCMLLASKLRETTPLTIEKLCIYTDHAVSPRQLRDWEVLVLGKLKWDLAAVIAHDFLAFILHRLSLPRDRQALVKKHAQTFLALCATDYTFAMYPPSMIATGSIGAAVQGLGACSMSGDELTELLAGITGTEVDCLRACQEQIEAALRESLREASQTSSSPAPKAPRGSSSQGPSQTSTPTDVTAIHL
Chain of CDK6/Cyclin D3 (Q00534 whole entry, species assumed): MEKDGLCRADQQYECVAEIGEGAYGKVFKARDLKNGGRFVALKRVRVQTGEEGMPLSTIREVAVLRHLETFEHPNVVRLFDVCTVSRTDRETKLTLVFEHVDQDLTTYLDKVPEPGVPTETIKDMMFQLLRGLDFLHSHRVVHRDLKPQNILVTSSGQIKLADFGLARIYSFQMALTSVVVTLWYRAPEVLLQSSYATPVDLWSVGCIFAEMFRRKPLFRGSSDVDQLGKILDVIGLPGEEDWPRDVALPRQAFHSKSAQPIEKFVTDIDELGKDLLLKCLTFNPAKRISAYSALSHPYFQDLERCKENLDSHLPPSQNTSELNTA
Chain of CDK6/Cyclin D3 (P30281 whole entry partner, species assumed): as the sequence (P30281 whole entry partner, species assumed) above

Take `CCS(=O)(=O)N1CCC(Nc2ncc3ccc4nnn(C(C)C)c4c3n2)CC1` [II.15, N-(1-(ethylsulfonyl)piperidin-4-yl)-1-isopropyl-1H-[1,2,3] triazolo[4,5-h]quinazolin-8-amine]: the IC50 amounted to 4 nM at CDK6/Cyclin D3, 3 nM at CDK4/cyclin D3 and 0.3 nM at CDK2/Cyclin A2.

Regarding `CC(C)n1nnc2ccc3cnc(NC4CCN(S(=O)(=O)C5CC5)CC4)nc3c21` [II.16, N-(1-(cyclopropylsulfonyl)piperidin-4-yl)-1-isopropyl-1H-[1,2,3]triazolo[4,5-h]quinazolin-8-amine], the 50% inhibitory concentration (IC50) on CDK6/Cyclin D3 came to 5 nM; on CDK4/cyclin D3, 3 nM; at CDK2/Cyclin A2, 0.2 nM.

Consider `CC(C)n1nnc2ccc3cnc(NC4CCN(S(=O)(=O)CC5CC5)CC4)nc3c21` [II.17, N-(1-((cyclopropylmethyl)sulfonyl)piperidin-4-yl)-1-iso-propyl-1H-[1,2,3]triazolo[4,5-h]quinazolin-8-amine], for which the concentration for half-maximal inhibition (IC50) at CDK6/Cyclin D3 was 15 nM; on CDK4/cyclin D3, 8 nM; at CDK2/Cyclin A2 it was 1 nM.

`COCCS(=O)(=O)N1CCC(Nc2ncc3ccc4nnn(C(C)C)c4c3n2)CC1` [II.18, 1-isopropyl-N-(1-((2-methoxyethyl)sulfonyl)piperidin-4-yl)-1H-[1,2,3]triazolo[4,5-h]quinazolin-8-amine]: the figures for the IC50 at CDK6/Cyclin D3, on CDK4/cyclin D3 and at CDK2/Cyclin A2 were 8 nM, 3 nM and 1 nM, respectively.

`CC(C)n1nnc2ccc3cnc(NC4CCN(S(=O)(=O)C(F)F)CC4)nc3c21` [II.19, N-(1-((difluoromethyl)sulfonyl)piperidin-4-yl)-1-isopropyl-1H-[1,2,3]triazolo[4,5-h]quinazolin-8-amine]: the values for the IC50 on CDK6/Cyclin D3, at CDK4/cyclin D3 and at CDK2/Cyclin A2 were 4 nM, 3 nM and 0.4 nM, respectively.

`CNS(=O)(=O)N1CCC(Nc2ncc3ccc4nnn(C(C)C)c4c3n2)CC1` [II.20, 4-((1-isopropyl-1H-[1,2,3]triazolo[4,5-h]quinazolin-8-yl)amino)-N-methylpiperidin-1-sulfamide]: the IC50 came out at 12 nM at CDK6/Cyclin D3, 4 nM on CDK4/cyclin D3 and 0.2 nM on CDK2/Cyclin A2.

For the molecule `CC(C)n1nnc2c(F)cc3cnc(NC4CCN(S(C)(=O)=O)CC4)nc3c21` [II.21, 4-fluoro-1-isopropyl-N-(1-(methylsulfonyl)piperidin-4-yl)-1H-[1,2,3]triazolo[4,5-h]quinazolin-8-amine], the IC50 at CDK6/Cyclin D3 was 5 nM; on CDK4/cyclin D3, 2 nM; at CDK2/Cyclin A2, 0.2 nM.

On to `CC(C)n1nnc2cc(F)c3cnc(NC4CCN(S(C)(=O)=O)CC4)nc3c21` [II.22, 5-fluoro-1-isopropyl-N-(1-(methylsulfonyl)piperidin-4-yl)-1H-[1,2,3]triazolo[4,5-h]quinazolin-8-amine], for which the half-maximal inhibitory concentration (IC50) was 4 nM at CDK6/Cyclin D3, 3 nM on CDK4/cyclin D3 and 0.2 nM on CDK2/Cyclin A2.

As for `CC(C)n1nnc2c(Cl)cc3cnc(NC4CCN(S(C)(=O)=O)CC4)nc3c21` [II.23, 4-chloro-1-isopropyl-N-(1-(methylsulfonyl)piperidin-4-yl)-1H-[1,2,3]triazolo[4,5-h]quinazolin-8-amine], the IC50 was determined as 9 nM at CDK6/Cyclin D3, 3 nM at CDK4/cyclin D3 and 0.4 nM at CDK2/Cyclin A2.

Consider `CC(C)n1nnc2c(Br)cc3cnc(NC4CCN(S(C)(=O)=O)CC4)nc3c21` [II.24, 4-bromo-1-isopropyl-N-(1-(methylsulfonyl)piperidin-4-yl)-1H-[1,2,3]triazolo[4,5-h]quinazolin-8-amine], for which the concentration for half-maximal inhibition (IC50) on CDK6/Cyclin D3 is 16 nM; on CDK4/cyclin D3, 4 nM; at CDK2/Cyclin A2, 1 nM.

For `[2H]c1cc2cnc(NC3CCN(S(C)(=O)=O)CC3)nc2c2c1nnn2C(C)C` [II.25, 1-isopropyl-N-(1-(methylsulfonyl)piperidin-4-yl)-1H-[1,2,3]triazolo [4,5-h]quinazolin-4-d-8-amine], the IC50 at CDK6/Cyclin D3 is 5 nM; at CDK4/cyclin D3, 3 nM; at CDK2/Cyclin A2, 0.2 nM.

For the molecule `Cc1cc2cnc(NC3CCN(S(C)(=O)=O)CC3)nc2c2c1nnn2C(C)C` [II.26, 1-isopropyl-4-methyl-N-(1-(methylsulfonyl)piperidin-4-yl)-1H-[1,2,3] triazolo[4,5-h]quinazolin-8-amine], the IC50 on CDK6/Cyclin D3 was 8 nM; at CDK4/cyclin D3 it was 3 nM; at CDK2/Cyclin A2, 0.4 nM.

As to `CC(C)n1nnc2c(C(F)F)cc3cnc(NC4CCN(S(C)(=O)=O)CC4)nc3c21` [II.27, 4-(difluoromethyl)-1-isopropyl-N-(1-(methylsulfonyl)piperidin-4-yl)-1H-[1,2,3]triazolo[4,5-h]quinazolin-8-amine], the values for the IC50 at CDK6/Cyclin D3, at CDK4/cyclin D3 and on CDK2/Cyclin A2 were 5 nM, 3 nM and 0.2 nM, respectively.

As to `CCS(=O)(=O)N1CCC(Nc2ncc3cc(C(F)F)c4nnn(C(C)C)c4c3n2)CC1` [II.28, 4-(difluoromethyl)-N-(1-(ethylsulfonyl)piperidin-4-yl)-1-isopropyl-1H-[1,2,3]triazolo[4,5-h]quinazolin-8-amine], the IC50 on CDK6/Cyclin D3 was found to be 7 nM; on CDK4/cyclin D3, 3 nM; at CDK2/Cyclin A2, 0.2 nM.

In the case of `CC(C)n1nnc2c(C(F)F)cc3cnc(NC4CCN(S(=O)(=O)C5CC5)CC4)nc3c21` [II.29, N-(1-(cyclopropylsulfonyl)piperidin-4-yl)-4-(difluoromethyl)-1-isopropyl-1H-[1,2,3]triazolo[4,5-h]quinazolin-8-amine], the IC50 amounted to 3 nM on CDK6/Cyclin D3, 1 nM on CDK4/cyclin D3 and 0.2 nM at CDK2/Cyclin A2.

With `CC(C)n1nnc2c(C(F)F)cc3cnc(NC4CCN(S(=O)(=O)C(F)F)CC4)nc3c21` [II.30, 4-(difluoromethyl)-N-(1-((difluoromethyl)sulfonyl)piperidin-4-yl)-1-isopropyl-1H-[1,2,3]triazolo[4,5-h]quinazolin-8-amine], the values for the IC50 on CDK6/Cyclin D3, on CDK4/cyclin D3 and at CDK2/Cyclin A2 were 6 nM, 3 nM and 0.3 nM, respectively.

On to `CC(C)n1nnc2c(CC(F)(F)F)cc3cnc(NC4CCN(S(C)(=O)=O)CC4)nc3c21` [II.31, 1-isopropyl-N-(1-(methylsulfonyl)piperidin-4-yl)-4-(2,2,2-trifluoro-ethyl)-1H-[1,2,3]triazolo[4,5-h]quinazolin-8-amine], for which the IC50 is 2 nM on CDK6/Cyclin D3, 1 nM at CDK4/cyclin D3 and 0.2 nM on CDK2/Cyclin A2.

As for `C[C@@]1(O)CCC[C@H]1n1nnc2ccc3cnc(NC4CCN(S(C)(=O)=O)CC4)nc3c21` [II.32, (1R,2R)-1-methyl-2-(8-((1-(methylsulfonyl)piperidin-4-yl)amino)-1H-[1,2,3]triazolo[4,5-h]quinazolin-1-yl)cyclopentan-1-ol], the IC50 at CDK6/Cyclin D3 turned out to be 9 nM; at CDK4/cyclin D3, 5 nM; at CDK2/Cyclin A2, 0.2 nM.

For the molecule `C[C@@]1(O)CCC[C@H]1n1nnc2c(C(F)F)cc3cnc(NC4CCN(S(C)(=O)=O)CC4)nc3c21` [II.33], the values for the IC50 at CDK6/Cyclin D3, at CDK4/cyclin D3 and on CDK2/Cyclin A2 were 5 nM, 3 nM and 0.3 nM, respectively.

Consider `CC(C)n1nnc2ccc3cnc(NC4CCCNC4)nc3c21` (stereo not drawn) [II.34, 1-isopropyl-N-(piperidin-3-yl)-1H-[1,2,3]triazolo[4,5-h]quinazolin-8-amine], for which the IC50 at CDK6/Cyclin D3 is 35 nM; on CDK4/cyclin D3, 55 nM; on CDK2/Cyclin A2, 296 nM.

On to `CC(C)n1nnc2ccc3cnc(NC4CCC(=O)NC4)nc3c21` (stereo not drawn) [II.35, 5-((1-isopropyl-1H-[1,2,3]triazolo[4,5-h]quinazolin-8-yl)amino)piperidin-2-one], for which the IC50 on CDK6/Cyclin D3 came out at 58 nM; on CDK4/cyclin D3, 50 nM; on CDK2/Cyclin A2, 10 nM.
